# Laboratory results published in patent publication US20070190523A1 (priority 2002, published 2007).
# Like-named read-outs stand apart in the source and are kept apart here.
# Key:
# WT = WT (Human immunodeficiency virus type 1 group M subtype B, UniProt P04585); experiment: cell-based; design: species or system HIV
# [1] = system: wild-type HIV-1 strain IIIB; experiment: microbe, parasite or virus in culture; format: cell-based
# 84V90M [2] = target: T1, 84V90M (Human immunodeficiency virus type 1 group M subtype B, UniProt P04585, I572V/L578M); experiment: cell-based; design: species or system HIV; conditions: MT-4, 84V90M; read-out: Cell-based assay (MT-4) EC50/nM 84V90M
# [3] = system: recombinant HIV-1 strains with resistance mutations in the protease gene; experiment: Cross-Resistance Profile Assay, whole panel; format: cell-based; conditions: {}
# 84V90M [4] = target: T1, 84V90M; experiment: biochemical; format: biochemical, HIV; conditions: Enzymatic assay, 84V90M; read-out: 84V90M IC50/nM
# [5] = system: mutant HIV-1 with I84V/L90M mutations; format: cell-based
# [6] = Human immunodeficiency virus 1, IIIB, MT2
# [7] = fold difference in EC50 vs wild type, class symbols
# [8] = Human immunodeficiency virus 1, IIIB, MT2, Table 10, class symbols
compound,measurement,setting,value
CCOP(=O)(COCCCCN1C(=O)N(Cc2ccc3[nH]nc(N)c3c2)C(Cc2ccccc2)C(O)C(O)C1Cc1ccccc1)OCC (centres unmarked) [CH2OCH2PO3Et2],EC50,WT,119 nM
COc1ccc(S(=O)(=O)N(CC(C)C)CC(O)C(Cc2ccc(NCP(=O)(O)O)cc2)NC(=O)OC2COC3OCCC23)cc1 (centres unmarked),EC50,[1]; read-out: EC50,50 to 500 nM
CCCCOC(=O)C(Cc1ccccc1)NP(=O)(COc1ccc(CC(NC(=O)OC2COC3OCCC23)C(O)CN(CC(C)C)S(=O)(=O)c2ccc(OC)cc2)cc1)NC(Cc1ccccc1)C(=O)OCCCC (centres unmarked) [Example 16j],EC50,[1]; read-out: Anti-HIV-1 Cell Culture Activity EC50,35 ± 7 nM
CCOP(=O)(COc1ccc(CN2C(=O)N(Cc3ccc4[nH]nc(N)c4c3)C(Cc3ccccc3)C(O)C(O)C2Cc2ccccc2)cc1)OCC (centres unmarked),EC50,WT,2480 nM
CCOP(=O)(COc1ccc(CC2C(O)C(O)C(Cc3ccccc3)N(Cc3ccccc3)C(=O)N2Cc2ccccc2)cc1)OCC (centres unmarked),EC50,WT,107 nM
same,EC50,84V90M [2],2460 nM
CC(C)(C)NC(=O)[C@@H]1C[C@@H]2CCCC[C@@H]2CN1C[C@@H](O)[C@H](Cc1ccccc1)NC(=O)[C@H](CC(N)=O)NC(=O)c1ccc2ccccc2n1 [Saquinavir],Total No. of Resistant Viruses,[3],4
Nc1n[nH]c2ccc(CN3C(=O)N(Cc4ccc(OCP(=O)(O)O)cc4)C(Cc4ccccc4)C(O)C(O)C3Cc3ccccc3)cc12 (centres unmarked) [p-OCH2PO3H2],IC50,84V90M [4],1660 nM
same,EC50,WT,> 12000 nM
O=C1N(Cc2ccccc2)[C@H](Cc2ccccc2)[C@H](O)[C@@H](O)[C@@H](Cc2ccccc2)N1Cc1ccc2[nH]ncc2c1 [reference compound],EC50,WT,193 nM
same,EC50,84V90M [2],2310 nM
CCOP(=O)(COc1ccc2c(c1)CCN(CC(NC(=O)OC1COC3OCCC13)C(O)CN(CC(C)C)S(=O)(=O)c1ccc(OC)cc1)C2)OCC (centres unmarked),EC50,[1]; [6],50 to 500 nM
same,I84V/L90M fold change,[5]; [7],+ (>3 to ≦10)
Nc1n[nH]c2ccc(CN3C(=O)N(Cc4cccc(O)c4)C(Cc4ccccc4)C(O)C(O)C3Cc3ccccc3)cc12 (centres unmarked) [m-OH],EC50,WT,151 nM
CCOC(=O)C(C)OP(=O)(Cc1ccc2c(c1)CCN(CC(NC(=O)OC1COC3OCCC13)C(O)CN(CC(C)C)S(=O)(=O)c1ccc(OC)cc1)C2)Oc1ccccc1 (centres unmarked),EC50,[1]; [8],50 to 500 nM
same,I84V/L90M fold change,[5]; [7],+ (>3 to ≦10)
Nc1n[nH]c2ccc(CN3C(=O)N(Cc4cccc(OCP(=O)(OCc5ccccc5)OCc5ccccc5)c4)C(Cc4ccccc4)C(O)C(O)C3Cc3ccccc3)cc12 (centres unmarked),EC50,WT,898 nM
CCOC(=O)COP(=O)(COc1ccc(CC(NC(=O)OC2COC3OCCC23)C(O)CN(CC(C)C)S(=O)(=O)c2ccc(OC)cc2)cc1)OCC(=O)OCC (centres unmarked) [drawing 607 R1=Glc-Et R2=Glc-Et],EC50,[1]; [6],500 to 5000 nM
same,I84V/L90M fold change,[5]; [7],− (≦3)
"CCOP(=O)(COc1ccc(CC(NC(=O)OC2CCOC2)C(O)CN(CC(C)C)S(=O)(=O)c2ccc(OC)cc2)cc1)OCC (centres unmarked) [OMe, OEt]",EC50,[1]; [6],< 50 nM
same,I84V/L90M fold change,[5]; I84V/L90M mutant,++ (>10 to ≦30)
COc1ccc(S(=O)(=O)N(CC(C)C)C[C@@H](O)[C@H](Cc2ccccc2)NC(=O)O[C@H]2CO[C@H]3OCC[C@H]32)cc1 [Example 94-003],Total No. of Resistant Viruses,[3],3
"CCOP(=O)(COc1ccc(CC2C(O)C(O)C(Cc3ccc(O)cc3)N(Cc3ccc(O)cc3)C(=O)N2Cc2ccc(O)cc2)cc1)OCC (centres unmarked) [OH, Ph-pOH, OCH2PO3Et2]",EC50,WT,285 nM
same,EC50,84V90M [2],1910 nM
Nc1n[nH]c2ccc(CN3C(=O)N(Cc4ccc(OCP(=O)(OCc5ccccc5)OCc5ccccc5)cc4)C(Cc4ccccc4)C(O)C(O)C3Cc3ccccc3)cc12 (centres unmarked),EC50,WT,2700 nM
"CC(C)CN(C[C@@H](O)[C@H](Cc1ccccc1)NC(=O)O[C@H]1CCOC1)S(=O)(=O)c1ccc(N)cc1 [Amprenavir, amprenavir]",Total No. of Resistant Viruses,[3],4
CC(C)CN(C[C@@H](O)[C@H](Cc1ccc(OCP(=O)(OCc2ccccc2)OC(C)C(=O)OCc2ccccc2)cc1)NC(=O)O[C@H]1CO[C@H]2OCC[C@H]21)S(=O)(=O)c1ccc(OCc2ccccc2)cc1 (some centres unmarked),EC50,[1]; read-out: EC50,500 to 5000 nM
CCOC(=O)C(CC)NP(=O)(COc1ccc(CC(NC(=O)OC2COC3OCCC23)C(O)CN(CC(C)C)S(=O)(=O)c2ccc(OC)cc2)cc1)NC(CC)C(=O)OCC (centres unmarked) [drawing 606 R1=Aba-Et R2=Aba-Et],EC50,[1]; [6],< 50 nM
Nc1n[nH]c2ccc(CN3C(=O)N(CCCCOCP(=O)(O)O)C(Cc4ccccc4)C(O)C(O)C3Cc3ccccc3)cc12 (centres unmarked) [CH2OCH2PO3H2],EC50,WT,1760 nM
CCOP(=O)(COc1cccc(CN2C(=O)N(Cc3ccc4[nH]nc(N)c4c3)C(Cc3ccccc3)C(O)C(O)C2Cc2ccccc2)c1)OCC (centres unmarked),EC50,WT,665 nM
Cc1ccc(C(=O)N[C@@H](Cc2ccc(OCP(=O)(Oc3ccccc3)Oc3ccccc3)cc2)[C@H](O)CN(CC(C)C)S(=O)(=O)c2ccc(N)cc2)cc1O,EC50,[1]; read-out: EC50,500 to 5000 nM
CCCCN1C(=O)N(Cc2ccc3[nH]nc(N)c3c2)C(Cc2ccccc2)C(O)C(O)C1Cc1ccccc1 (centres unmarked) [DMP-851],EC50,WT,54 nM
"Cc1c(O)cccc1C(=O)N[C@@H](CSc1ccccc1)[C@H](O)CN1C[C@H]2CCCC[C@H]2C[C@H]1C(=O)NC(C)(C)C [Nelfinavir, nelfinavir]",Total No. of Resistant Viruses,[3],9
Nc1n[nH]c2ccc(CN3C(=O)N(Cc4cccc(OCP(=O)(O)Oc5ccccc5)c4)C(Cc4ccccc4)C(O)C(O)C3Cc3ccccc3)cc12 (centres unmarked) [m-OCH2PO3HPh],EC50,WT,1750 nM
CCOC(=O)COP(=O)(COc1ccc(CC(NC(=O)OC2COC3OCCC23)C(O)CN(CC(C)C)S(=O)(=O)c2ccc(OC)cc2)cc1)Oc1ccccc1 (centres unmarked) [drawing 609 R1=OPh R2=Glc-Et],EC50,[1]; [8],< 50 nM
same,I84V/L90M fold change,[5]; [7],− (≦3)
CC(C)(C)NC(=O)[C@@H]1CN(Cc2cccnc2)CCN1C[C@@H](O)C[C@@H](Cc1ccccc1)C(=O)N[C@H]1c2ccccc2C[C@H]1O [Indinavir],Total No. of Resistant Viruses,[3],8
"CCOP(=O)(COc1ccc(CC2C(O)C(O)C(Cc3ccc(OC)cc3)N(Cc3cccc(N)c3)C(=O)N2Cc2cccc(N)c2)cc1)OCC (centres unmarked) [OCH3, Ph-mNH2, OCH2PO3Et2]",EC50,WT,63 nM
Nc1n[nH]c2ccc(CN3C(=O)N(CCCOCP(=O)(O)O)C(Cc4ccccc4)C(O)C(O)C3Cc3ccccc3)cc12 (centres unmarked) [OCH2PO3H2],EC50,"WT; MT-4, WT, read-out: Cell-based assay (MT-4) EC50/nM WT",1070 nM
same,EC50,84V90M [2],> 600 nM
CC(C)c1nc(CN(C)C(=O)N[C@H](C(=O)N[C@@H](Cc2ccccc2)C[C@H](O)[C@H](Cc2ccccc2)NC(=O)OCc2cncs2)C(C)C)cs1 [Ritonavir],Total No. of Resistant Viruses,[3],10
Nc1n[nH]c2ccc(CN3C(=O)N(Cc4cccc(OCP(=O)(O)O)c4)C(Cc4ccccc4)C(O)C(O)C3Cc3ccccc3)cc12 (centres unmarked) [m-OCH2PO3H2],EC50,WT,> 12000 nM
CCCCOC(=O)C(C)NP(=O)(COc1ccc(CC(NC(=O)OC2COC3OCCC23)C(O)CN(CC(C)C)S(=O)(=O)c2ccc(OC)cc2)cc1)Oc1ccccc1 (centres unmarked) [drawing 608 R1=OPh R2=Ala-Bu],I84V/L90M fold change,[5]; [7],− (≦3)
CCOC(=O)C(C)OP(=O)(Cc1ccc2c(c1)CCN(C[C@H](NC(=O)O[C@H]1CO[C@H]3OCC[C@H]31)[C@H](O)CN(CC(C)C)S(=O)(=O)c1ccc(OC)cc1)C2)Oc1ccccc1 (some centres unmarked),I84V/L90M fold change,[5]; I84V/L90M mutant,+ (>3 to ≦10)
"CC(C)CN(CC(O)C(Cc1ccc(O)cc1)NC(=O)OC1COC2OCCC12)S(=O)(=O)c1ccc(OCP(=O)(O)O)cc1 (centres unmarked) [OH, OH]",EC50,[1]; [6],> 5000 nM
CCOP(=O)(OCC)c1ccc(CN(C)CC(NC(=O)OC2COC3OCCC23)C(O)CN(CC(C)C)S(=O)(=O)c2ccc(OC)cc2)cc1 (centres unmarked),I84V/L90M fold change,[5]; [7],− (≦3)
"COc1ccc(S(=O)(=O)N(CC(C)C)C[C@@H](O)[C@H](Cc2ccc(OCP(=O)(O)O)cc2)NC(=O)OC2CCOC2)cc1 (some centres unmarked) [OMe, OH]",I84V/L90M fold change,[5]; I84V/L90M mutant,+++ (>30)
"COc1ccc(S(=O)(=O)N(CC(C)C)C[C@@H](O)[C@H](Cc2ccc(OCP(=O)(Oc3ccccc3)Oc3ccccc3)cc2)NC(=O)OC2CCOC2)cc1 (some centres unmarked) [OMe, phenol]",I84V/L90M fold change,[5]; I84V/L90M mutant,+ (>3 to ≦10)
Nc1n[nH]c2ccc(CN3C(=O)N(Cc4cccc(OCP(=O)(Oc5ccccc5)Oc5ccccc5)c4)C(Cc4ccccc4)C(O)C(O)C3Cc3ccccc3)cc12 (centres unmarked) [m-OCH2PO3Ph2],EC50,WT,1350 nM
Cc1ccc(C(=O)NC(Cc2ccc(OCP(=O)(OCc3ccccc3)OCc3ccccc3)cc2)C(O)CN(CC(C)C)S(=O)(=O)c2ccc(N)cc2)cc1O (centres unmarked),I84V/L90M fold change,[5]; I84V/L90M mutant,+ (>3 to ≦10)
COc1ccc(S(=O)(=O)N(CC(C)C)CC(O)C(Cc2ccc(C)cc2)NC(=O)OC2COC3OCCC23)cc1 (centres unmarked),EC50,[1]; [6],< 50 nM
same,I84V/L90M fold change,[5]; I84V/L90M mutant,+ (>3 to ≦10)
CC(C)CN(CC(O)C(Cc1ccc(OCP(=O)(OCc2ccccc2)OCc2ccccc2)cc1)NC(=O)OC1COC2OCCC12)S(=O)(=O)c1ccc(N)cc1 (centres unmarked),I84V/L90M fold change,[5]; I84V/L90M mutant,− (≦3)
CC(C)CN(CC(O)C(Cc1ccc(OCP(=O)(OCc2ccccc2)OCc2ccccc2)cc1)NC(=O)OC1COC2OCCC12)S(=O)(=O)c1ccc(C(F)(F)F)cc1 (centres unmarked),I84V/L90M fold change,[5]; I84V/L90M mutant,− (≦3)
CCOP(=O)(Cc1ccc(N(C)CC(NC(=O)OC2COC3OCCC23)C(O)CN(CC(C)C)S(=O)(=O)c2ccc(OC)cc2)cc1)OCC (centres unmarked),I84V/L90M fold change,[5]; [7],+ (>3 to ≦10)
CCOP(=O)(CCCNC(=O)c1cccc(CN2C(=O)N(Cc3cccc(N)c3)C(Cc3ccccc3)C(O)C(O)C2Cc2ccccc2)c1)OCC (centres unmarked),EC50,WT,176 nM
